For one data set, the system named is intraocular pressure. The data set is described as follows: Intraocular pressure in rabbits after topical application to the eye (tonometric, Alcon Applanation Pneumotonograph). The data set is classed as in vivo, white New Zealand rabbits. As to conditions: 2 drops (50 μl) per eye, rabbit. As for the experimental part:
B=2-Amino-6-allyl-5,6,7,8-tetrahydro-4H-thiazolo[4,5-d]azepine dihydrochloride. The tests were performed on white New Zealand rabbits of both sexes having a body weight of 2.5 to 3 kg. Each rabbit was used for 4 tests at intervals of at least 3 days between tests.
The intraocular pressure was measured tonometrically with an Alcon Applanation Pneumotonograph (APTG) calibrated for the human eye. By means of a factor obtained by comparison of the manometric values and APTG values in rabbits anesthetized with urethane, the so-called real pressures were determined. Moreover, before each measurement the cornea was anesthetized with 20 μl of an 0.05% oxybuprocain [2-(diethylamino)-ethyl-4-amino-3-butoxy-benzoate] solution.
The test compound was dropped at different concentrations directly into each eye, 2 drops (50 μl) per eye.

The nature of data set [1]: Oral acute toxicity (LD50) in the mouse. As to conditions: in vivo. The text has this: Furthermore, the compounds of the formula I and their non-toxic, pharmacologically acceptable acid addition salts show good compatibility.

Counter-ions that a name gives are not always drawn.

By LD50 is commonly meant the dose at which mortality reaches 50%. Low values mean a more toxic substance, high ones a less toxic substance. For the compound `CCN1CCc2nc(N)oc2CC1` [Compound A, 2-Amino-6-ethyl-5,6,7,8-tetrahydro-4H-oxoazolo[4,5-d]azepine dihydrochloride], the “Reduction of the intraocular pressure in % after one hour” value is -15% in the data set with intraocular pressure (0.3% concentration), -21% in the data set on intraocular pressure (1.0% concentration) and -32% with intraocular pressure (3.0% concentration). This compound also displayed an LD50 in data set [1] of 2.21 mg/kg.

Turning to `C=CCN1CCc2nc(N)sc2CC1.Cl.Cl` [Compound B, 2-Amino-6-allyl-5,6,7,8-tetrahydro-4H-thiazolo[4,5-d]azepine dihydrochloride], the “Values of the intraocular pressure in mmHg after one hour” value was determined as 15 mmHg in the data set on intraocular pressure (0.01% concentration), 14.5 mmHg in the data set on intraocular pressure (0.03% concentration), 13 mmHg in the data set with intraocular pressure (concentration 0.3 (% not given)) and 10 mmHg in the data set with intraocular pressure (concentration 1.0 (% not given)). Further, the median lethal dose (LD50) in data set [1] came to 455 mg/kg.

The values above are taken from patent US4400378A, “Pharmaceutical composition for the treatment of glaucoma” (priority 1981, dated 1983).
